Our source for the GI50 and TGI values is PubChem BioAssay (NCI).

Test systems include COLO 205 colon; HCC-2998 colon; M14 melanoma; OVCAR-3 ovarian; PC-3 prostate; SR leukemia; SW-620 colon; EKVX NSCLC.
What all share (assay): inhibition of tumour cell growth, NCI panel, 48 h

Structures are written as SMILES. Values joined by “and” are separate entries in the source; they are usually repeats but may differ in a detail not shown here. Equal values may be shown once.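 Method: 48-hour compound exposure of cells in 96-well plates, five concentrations, linear interpolation of endpoints. Abbreviation: GI50, concentration required for 50% inhibition of growth. TGI: total growth inhibition.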

In the case of `COc1ccc(-c2nsc3c2NC(=O)CC3c2ccc3c(c2)OCCO3)cc1` (stereo not given), the GI50 in the assay with COLO 205 colon was 0.431 µM; with HCC-2998 colon, 1.38 µM; in the assay with M14 melanoma, 0.397 µM; in the assay on OVCAR-3 ovarian it was 0.327 µM; in the assay with PC-3 prostate, 0.528 µM; in the assay on SR leukemia, 0.301 µM. Also, in the assay with SW-620 colon, the GI50 was 0.384 µM. Besides, the TGI with COLO 205 colon was 2.18 µM; in the assay with HCC-2998 colon, 19.5 µM; with M14 melanoma it was more than 100 µM; in the assay on OVCAR-3 ovarian it was 1.15 µM; with PC-3 prostate it was more than 100 µM; in the assay on SR leukemia, more than 100 µM. Besides, the TGI with SW-620 colon was more than 100 µM.
`CCNc1cc2oc(=O)cc(C(F)(F)F)c2cc1C`: the TGI in the assay with COLO 205 colon, in the assay with EKVX NSCLC, in the assay on HCC-2998 colon, in the assay with M14 melanoma, with OVCAR-3 ovarian and in the assay with PC-3 prostate was more than 100 µM throughout. The same compound displayed a TGI in the assay with SW-620 colon of more than 100 µM.
`O=C1NCN(c2ccccc2)C12CCN(CCCC(c1ccc(F)cc1)c1ccc(F)cc1)CC2`: the GI50 with COLO 205 colon is 1.72 µM; in the assay with HCC-2998 colon it was 2.24 µM; in the assay on M14 melanoma, 1.67 µM; in the assay with OVCAR-3 ovarian, 2 µM; with PC-3 prostate it was 2.49 µM; with SR leukemia, 0.704 µM. Besides, the GI50 in the assay on SW-620 colon was 2.06 µM. Moreover, the TGI with COLO 205 colon is 3.24 µM; with HCC-2998 colon, 4.16 µM; with M14 melanoma it was 3.18 µM; in the assay on OVCAR-3 ovarian it was 3.98 µM; in the assay with PC-3 prostate, 10.7 µM; with SR leukemia, 3.74 µM. Besides, the TGI in the assay on SW-620 colon was determined as 4.58 µM.
For `C[C@]12CC[C@@H]3c4ccc(O)cc4CC[C@H]3[C@@H]1CC[C@@H]2NS(=O)(=O)c1cccc(Cl)c1`, the GI50 in the assay on COLO 205 colon is 1.81 µM; in the assay with HCC-2998 colon it was 3.45 µM; in the assay on M14 melanoma, 2.34 µM; with PC-3 prostate it was 2.98 µM; with SR leukemia, 2.15 µM; in the assay with SW-620 colon it was 3.91 µM. The TGI with COLO 205 colon was 3.31 µM; with HCC-2998 colon, 10.4 µM; in the assay on M14 melanoma, 6.35 µM; with PC-3 prostate, 11.9 µM; in the assay on SR leukemia it was 6.6 µM; in the assay on SW-620 colon it was 15 µM.
For `Cc1c(NC(=O)CCl)c(=O)oc2c(C)c3occc(=O)c3cc12`, the TGI was 40 µM with COLO 205 colon; 38.2 µM with EKVX NSCLC; 32.8 µM in the assay with HCC-2998 colon; 26 µM in the assay with M14 melanoma; 58 µM with SR leukemia; 30.6 µM with SW-620 colon.
As for `O=C(Nc1ccc2ncnc(Nc3ccc(Oc4cccc(F)c4)c(Cl)c3)c2c1)c1ccc(CN2CCOCC2)cc1`, the GI50 in the assay on COLO 205 colon is 2.56 µM; in the assay on EKVX NSCLC, 1.86 µM; in the assay with HCC-2998 colon, 3.14 µM; with M14 melanoma, 2.03 µM; in the assay on OVCAR-3 ovarian, 2.16 µM; in the assay with PC-3 prostate, 2.24 µM. In addition, the GI50 with SW-620 colon was 3.21 µM. Further, the TGI in the assay on COLO 205 colon was determined as 8.34 µM; with EKVX NSCLC, 38.2 µM; with HCC-2998 colon, 18.6 µM; in the assay with M14 melanoma it was 4.68 µM; in the assay on OVCAR-3 ovarian, 7 µM; in the assay with PC-3 prostate, 10.6 µM. The compound also came in with a TGI with SW-620 colon of 11.2 µM.
Consider `CC(=O)O[C@@]12CO[C@@H]1C[C@H](O)[C@@]1(C)C(=O)[C@H](O)C3=C(C)[C@@H](OC(=O)[C@H](O)[C@@H](NC(=O)OC(C)(C)C)c4ccccc4)C[C@@](O)([C@@H](OC(=O)c4ccccc4)C12)C3(C)C` (stereo not given in full), for which the TGI with COLO 205 colon is 0.0251 µM; with HCC-2998 colon it was 0.00872 µM and 0.0429 µM; in the assay with PC-3 prostate, 50 µM and 80.8 µM; with SR leukemia, 46.3 µM and 14.7 µM; in the assay with SW-620 colon it was 50 µM and > 100 µM. Further, the GI50 in the assay with HCC-2998 colon was less than 0.005 µM; in the assay on OVCAR-3 ovarian, less than 0.005 µM; with PC-3 prostate, < 0.005 µM and 0.0218 µM; in the assay with SR leukemia, less than 0.005 µM; with SW-620 colon, less than 0.005 µM.
`CCC[CH2][Sn]([CH2]CCC)([CH2]CCC)[O]C(=O)C(OC(C)=O)c1ccccc1` (stereo not given): the GI50 in the assay on COLO 205 colon was 0.18 µM; with EKVX NSCLC, 0.0528 µM; with HCC-2998 colon it was 0.0999 µM; with M14 melanoma, 0.138 µM; with OVCAR-3 ovarian, 0.137 µM; in the assay with SW-620 colon, 0.141 µM. Also, the TGI amounted to 0.321 µM with COLO 205 colon; 0.21 µM in the assay on EKVX NSCLC; 0.216 µM in the assay with HCC-2998 colon; 0.267 µM in the assay on M14 melanoma; 0.274 µM in the assay with OVCAR-3 ovarian; 0.273 µM with SW-620 colon.
Take `Cc1cn(CCC(N)C(=O)O)c(=O)[nH]c1=O` (stereo not given): the TGI in the assay with COLO 205 colon, with EKVX NSCLC, in the assay on M14 melanoma, in the assay with OVCAR-3 ovarian, in the assay on PC-3 prostate and with SR leukemia was more than 100 µM each time. In addition, the TGI in the assay with SW-620 colon is more than 100 µM.
In the case of `Cc1c(N)nc([C@H](CC(N)=O)NC[C@H](N)C(N)=O)nc1C(=O)N[C@H](C(=O)N[C@H](C)[C@@H](O)CC(=O)N[C@H](C(=O)NC(O[C@@H]1O[C@@H](C)[C@@H](N)[C@@H](O)[C@H]1O)C(O)c1nc(-c2nc(C(=O)NCCCCN)cs2)cs1)[C@@H](C)O)[C@@H](O[C@@H]1O[C@@H](CO)[C@@H](O)[C@H](O)[C@@H]1O[C@H]1O[C@H](CO)[C@@H](O)[C@H](OC(N)=O)[C@@H]1O)c1c[nH]cn1` (stereo not given in full), the TGI in the assay with COLO 205 colon, in the assay with EKVX NSCLC, with HCC-2998 colon, in the assay with M14 melanoma, with OVCAR-3 ovarian and with PC-3 prostate was more than 50 µM in each case. In the assay with SW-620 colon, this compound displayed a TGI of more than 50 µM.
Consider `CCN(CC)CCCOc1ccc2ncnc(Nc3ccc(Oc4cccc(C(F)(F)F)c4)c(Cl)c3)c2c1`, for which the GI50 in the assay with EKVX NSCLC is 1.26 µM; in the assay on HCC-2998 colon, 1.58 µM; with OVCAR-3 ovarian it was 1.45 µM; in the assay with PC-3 prostate, 1.75 µM; in the assay on SR leukemia it was 1.41 µM; in the assay with SW-620 colon, 1.61 µM. The TGI in the assay on EKVX NSCLC stood at 2.85 µM; with HCC-2998 colon it was 3.09 µM; in the assay with OVCAR-3 ovarian, 2.84 µM; in the assay on PC-3 prostate it was 3.58 µM; in the assay with SR leukemia it was 3.76 µM; in the assay on SW-620 colon it was 3.09 µM.
`O=C(O)C1CCN(Cc2oc(CO)cc(=O)c2O)C1` (stereo not given): the TGI with COLO 205 colon, in the assay with EKVX NSCLC, with M14 melanoma, in the assay on OVCAR-3 ovarian, in the assay with PC-3 prostate and with SR leukemia was more than 100 µM each time. Further, the TGI in the assay with SW-620 colon is more than 100 µM.
As to `COC(NC(N)=O)C(=O)O` (stereo not given), the TGI in the assay with COLO 205 colon, in the assay on EKVX NSCLC, in the assay with M14 melanoma, in the assay on OVCAR-3 ovarian, in the assay with PC-3 prostate and in the assay with SR leukemia was more than 100 µM each time. In the assay with SW-620 colon, this compound showed a TGI of more than 100 µM.
For the compound `O=C(O)CNc1ccc(Cl)c(Cl)c1`, the TGI with COLO 205 colon is 41.7 µM; in the assay on EKVX NSCLC it was 64.8 µM; in the assay with M14 melanoma, more than 100 µM; in the assay with OVCAR-3 ovarian, 82.4 µM; in the assay on PC-3 prostate it was 76 µM; with SW-620 colon it was 73.9 µM.
